In patent US12018001B2, “Pyrimidine cyclohexenyl glucocorticoid receptor modulators” (priority 2018, dated 2024):

Target: T1, glucocorticoid receptor (Homo sapiens, UniProt P04150)
T1 construct: host or cells: HepG2
T1 sequence (P04150 1-777): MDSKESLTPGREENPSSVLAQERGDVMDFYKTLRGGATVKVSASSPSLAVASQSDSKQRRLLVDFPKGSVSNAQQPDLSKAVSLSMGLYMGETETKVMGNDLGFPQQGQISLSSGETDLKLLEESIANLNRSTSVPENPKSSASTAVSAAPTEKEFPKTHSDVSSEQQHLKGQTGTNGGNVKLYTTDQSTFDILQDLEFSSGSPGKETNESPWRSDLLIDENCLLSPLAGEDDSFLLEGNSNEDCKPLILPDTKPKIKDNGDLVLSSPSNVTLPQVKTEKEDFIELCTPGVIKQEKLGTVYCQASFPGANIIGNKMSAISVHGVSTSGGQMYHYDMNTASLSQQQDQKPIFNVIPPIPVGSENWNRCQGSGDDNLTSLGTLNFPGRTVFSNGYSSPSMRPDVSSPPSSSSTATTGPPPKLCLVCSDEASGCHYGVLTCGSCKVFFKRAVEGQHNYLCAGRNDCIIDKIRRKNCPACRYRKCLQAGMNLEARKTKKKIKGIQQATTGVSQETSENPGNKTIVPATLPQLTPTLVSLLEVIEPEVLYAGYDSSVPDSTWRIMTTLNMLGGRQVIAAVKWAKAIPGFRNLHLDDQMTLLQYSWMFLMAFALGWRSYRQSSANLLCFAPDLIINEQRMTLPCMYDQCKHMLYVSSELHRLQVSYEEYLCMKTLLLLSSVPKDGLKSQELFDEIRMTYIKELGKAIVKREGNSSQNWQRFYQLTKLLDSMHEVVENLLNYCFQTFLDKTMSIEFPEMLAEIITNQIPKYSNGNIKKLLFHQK
Assay: Hep G2 TAT assay: induction of TAT by dexamethasone in HepG2 cells
Type: cell-based
Procedure: Glucocorticoid mediated activation of TAT occurs by transactivation of glucocorticoid response elements in the TAT promoter by glucocorticoid receptor-agonist complex.
TAT activity was measured as outlined in the literature by A. Ali et al., J. Med. Chem., 2004, 47, 2441-2452.
HepG2 cells were cultured using MEME media supplemented with 10% (v/v) foetal bovine serum; 2 mM L-glutamine and 1% (v/v) NEAA at 37° C., 5%/95% (v/v) CO2/air. The HepG2 cells were counted and adjusted to yield a density of 0.125×10^6 cells/ml in RPMI 1640 without phenol red, 10% (v/v) charcoal stripped FBS, 2 mM L-glutamine and seeded at 25,000 cells/well in 200 μl into 96 well, sterile, tissue culture micro titre plates, and incubated at 37° C., 5% CO2 for 24 hours
Growth media was removed and replaced with assay media {RPMI 1640 without phenol red, 2 mM L-glutamine+10 μM forskolin}. […] Compounds were serially half log diluted in 100% (v/v) dimethylsulphoxide from a 10 mM stock.
HepG2 cells were then lysed with 30 μl of cell lysis buffer containing a protease inhibitor cocktail for 15 minutes at 4° C. 155 μl of substrate mixture was then added containing 5.4 mM Tyrosine sodium salt, 10.8 mM alpha ketoglutarate and 0.06 mM pyridoxal 5′ phosphate in 0.1 M potassium phosphate buffer (pH 7.4). After 2 hours incubation at 37° C. the reaction was terminated by the addition of 15 μl of 10 M aqueous potassium hydroxide solution, and the plates incubated for a further 30 minutes at 37° C. The TAT activity product was measured by absorbance at λ 340 nm.
[compound] and fitting the data to a 4 parameter logistic equation.

Row | Structure (SMILES) | Ki [nM]
1 | CN(C)S(=O)(=O)c1ccc(C2=CCC(c3[nH]c(=O)[nH]c(=O)c3Cc3ccccc3)CC2)c(Cl)c1 (stereo not drawn) [Example 103] | 258
2 | O=c1[nH]c(C2CC=C(c3ccc(C4CC4)cc3F)CC2)c(Cc2ccccc2)c(=O)[nH]1 (stereo not drawn) [Example 111, 5-benzyl-6-(4′-cyclopropyl-2′-fluoro-2,3,4,5-tetrahydro-[1,1′-biphenyl]-4-yl)pyrimidine-2,4(1H,3H)-dione] | 113
3 | O=c1[nH]c(C2CC=C(c3ccc(C4CC4)cc3C(F)(F)F)CC2)c(Cc2ccccc2)c(=O)[nH]1 (stereo not drawn) [Example 112, 5-benzyl-6-(4′-cyclopropyl-2′-(trifluoromethyl)-2,3,4,5-tetrahydro-[1,1′-biphenyl]-4-yl)pyrimidine-2,4(1H,3H)-dione] | 333
4 | O=c1[nH]c(C2CC=C(c3ccc(C(F)(F)F)nc3N3CCCC3)CC2)c(Cc2ccccc2)c(=O)[nH]1 (stereo not drawn) [Example 113] | 75
5 | O=c1[nH]c(C2CC=C(c3ccc(Cl)cc3C(F)(F)F)CC2)c(Cc2cccc(C(F)(F)F)c2)c(=O)[nH]1 (stereo not drawn) [Example 114, 6-(4′-chloro-2′-(trifluoromethyl)-2,3,4,5-tetrahydro-[1,1′-biphenyl]-4-yl)-5-(3-(trifluoromethyl)benzyl)pyrimidine-2,4(1H,3H)-dione] | 121
6 | CS(=O)(=O)c1ccc(C2=CCC(c3[nH]c(=O)[nH]c(=O)c3Cc3cccc(F)c3F)CC2)c(F)c1 (stereo not drawn) [Example 115, 5-(2,3-difluorobenzyl)-6-(2′-fluoro-4′-(methylsulfonyl)-2,3,4,5-tetrahydro-[1,1′-biphenyl]-4-yl)pyrimidine-2,4(1H,3H)-dione] | 85
7 | CS(=O)(=O)c1ccc(C2=CCC(c3[nH]c(=O)[nH]c(=O)c3Cc3cccc(C(F)(F)F)c3)CC2)c(F)c1 (stereo not drawn) [Example 116] | 170
8 | CS(=O)(=O)c1ccc(C2=CCC(c3[nH]c(=O)[nH]c(=O)c3Cc3cccc(N4CCCC4)n3)CC2)c(F)c1 (stereo not drawn) [Example 117] | 559

Target: T2, GR (Homo sapiens, UniProt P04150)
T2 sequence (P04150 1-777): T1 sequence (P04150 1-777)
Assay: GR binding

Row | Structure (SMILES) | IC50 [nM]
9 | Cn1ncc2ccc(C3=CCC(c4[nH]c(=O)[nH]c(=O)c4Cc4ccccc4)CC3)cc21 (stereo not drawn) [Example 57] | 266
10 | CC(C)Oc1cc(C(F)(F)F)ccc1C1=CCC(c2[nH]c(=O)[nH]c(=O)c2Cc2ccccc2)CC1 (stereo not drawn) [Example 59] | 134
11 | O=c1[nH]c(C2CC=C(c3ccc4ncsc4c3)CC2)c(Cc2ccccc2)c(=O)[nH]1 (stereo not drawn) [Example 64] | 142
12 | O=c1[nH]c(C2CC=C(c3ccc4c(c3)OCCO4)CC2)c(Cc2ccccc2)c(=O)[nH]1 (stereo not drawn) [Example 65] | 103
13 | Cn1cnc2ccc(C3=CCC(c4[nH]c(=O)[nH]c(=O)c4Cc4ccccc4)CC3)cc21 (stereo not drawn) [Example 66] | 3520
14 | O=c1[nH]c(C2CC=C(c3ccc(C(F)(F)F)c(Cl)c3)CC2)c(Cc2ccccc2)c(=O)[nH]1 (stereo not drawn) [Example 69] | 3420
15 | CN(C)c1ccc(C2=CCC(c3[nH]c(=O)[nH]c(=O)c3Cc3ccccc3)CC2)cn1 (stereo not drawn) [Example 70] | 142
16 | O=c1[nH]c(C2CC=C(c3cnc(C(F)(F)F)nc3)CC2)c(Cc2ccccc2)c(=O)[nH]1 (stereo not drawn) [Example 72] | 1920
17 | Cc1nn(C)c(C)c1C1=CCC(c2[nH]c(=O)[nH]c(=O)c2Cc2ccccc2)CC1 (stereo not drawn) [Example 80] | 295
18 | CCOc1ccc(C2=CCC(c3[nH]c(=O)[nH]c(=O)c3Cc3ccccc3)CC2)c(Cl)c1 (stereo not drawn) [Example 82] | 4.4
19 | O=c1[nH]c(C2CC=C(c3ccc(Cl)c(F)c3F)CC2)c(Cc2ccccc2)c(=O)[nH]1 (stereo not drawn) [Example 83] | 38.3
20 | O=c1[nH]c(C2CC=C(c3cccc4nncn34)CC2)c(Cc2ccccc2)c(=O)[nH]1 (stereo not drawn) [Example 88] | 483
21 | O=c1[nH]c(C2CC=C(c3ccc(OC4CC4)cc3Cl)CC2)c(Cc2ccccc2)c(=O)[nH]1 (stereo not drawn) [Example 93] | 10
22 | O=c1[nH]c(C2CC=C(c3ccc(OCC4CC4)cc3C(F)(F)F)CC2)c(Cc2ccccc2)c(=O)[nH]1 (stereo not drawn) [Example 95] | 23
23 | CNS(=O)(=O)c1cc(C(F)(F)F)ccc1C1=CCC(c2[nH]c(=O)[nH]c(=O)c2Cc2ccccc2)CC1 (stereo not drawn) [Example 96] | 5090
24 | CN(C)S(=O)(=O)c1cc(C(F)(F)F)ccc1C1=CCC(c2[nH]c(=O)[nH]c(=O)c2Cc2ccccc2)CC1 (stereo not drawn) [Example 97] | 2560
